The subject of the data set is L1210. In words: In vitro cytotoxicity, Microculture Tetrazolium Assay, L1210. The class given is cell-based. As to conditions: L1210 murine leukaemia, incubated for 2 days; read-out: IC50 (concentration of cytotoxic agent which inhibits proliferation of the treated cells by 50%). The method, then: Three cell lines were used:
The cells are cultured in RPMI 1640 complete culture medium containing 10% foetal calf serum, 2 mM glutamine, 50 units/ml of penicillin, 50 μg/ml of streptomycin and 10 mM Hepes, pH=7.4. The cells are distributed on microplates and are exposed to the cytotoxic compounds. The cells are then incubated for 2 days (L1210) or 4 days (A549, HT29). The number of viable cells is then quantified by a colorimetric assay, the Microculture Tetrazolium Assay (Cancer Res. 1987, 47, 939-942).

Regarding `COc1cc(C2C3=C(COC3=O)Nc3c2ccc2ccc(O)cc32)cc(OC)c1OC` (stereo not shown) [Example 4], the IC50 stood at 7 nM.

The record behind these values is patent publication US20040180917A1, “Novel tricyclic dihydro-quinoline derivatives, method for preparing same and pharmaceutical compositions containing the same” (priority 2001, published 2004).
